Columns and labels:
SMARCA4 = SMARCA4 (Homo sapiens (Human), UniProt P51532); assay: SMARCA4 HiBiT degradation assay in HeLa cells; assay type: cell-based; details: 18 hours; for DC50: read-out: DC50 (SM4-HeLa) SMARCA4 degradation potency; for Dmax: HeLa, read-out: Dmax % (SM4-HeLa) maximum SMARCA4 degradation within the concentrations tested
Method in brief: (§1)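 HeLa monoclonal lines carrying a heterozygous HiBiT knock-in on SMARCA2 or SMARCA4 were seeded at 2500 cells/well in EMEM with 10% FBS. After 18 h compound exposure at 37 °C, Nano-Glo HiBiT lytic detection ran 30-60 min at RT before the luminescence read. Values are from curve fits.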

SMARCA2 = SMARCA2 (Homo sapiens (Human), UniProt P51531); assay: SMARCA2 HiBiT degradation assay in HeLa cells; assay type: cell-based; details: 18 hours; for DC50: read-out: DC50 (SM2-HeLa) SMARCA2 degradation potency; for Dmax: read-out: Dmax % (SM2-HeLa) maximum SMARCA2 degradation within the concentrations tested
Chain of SMARCA2 (P51531 whole entry): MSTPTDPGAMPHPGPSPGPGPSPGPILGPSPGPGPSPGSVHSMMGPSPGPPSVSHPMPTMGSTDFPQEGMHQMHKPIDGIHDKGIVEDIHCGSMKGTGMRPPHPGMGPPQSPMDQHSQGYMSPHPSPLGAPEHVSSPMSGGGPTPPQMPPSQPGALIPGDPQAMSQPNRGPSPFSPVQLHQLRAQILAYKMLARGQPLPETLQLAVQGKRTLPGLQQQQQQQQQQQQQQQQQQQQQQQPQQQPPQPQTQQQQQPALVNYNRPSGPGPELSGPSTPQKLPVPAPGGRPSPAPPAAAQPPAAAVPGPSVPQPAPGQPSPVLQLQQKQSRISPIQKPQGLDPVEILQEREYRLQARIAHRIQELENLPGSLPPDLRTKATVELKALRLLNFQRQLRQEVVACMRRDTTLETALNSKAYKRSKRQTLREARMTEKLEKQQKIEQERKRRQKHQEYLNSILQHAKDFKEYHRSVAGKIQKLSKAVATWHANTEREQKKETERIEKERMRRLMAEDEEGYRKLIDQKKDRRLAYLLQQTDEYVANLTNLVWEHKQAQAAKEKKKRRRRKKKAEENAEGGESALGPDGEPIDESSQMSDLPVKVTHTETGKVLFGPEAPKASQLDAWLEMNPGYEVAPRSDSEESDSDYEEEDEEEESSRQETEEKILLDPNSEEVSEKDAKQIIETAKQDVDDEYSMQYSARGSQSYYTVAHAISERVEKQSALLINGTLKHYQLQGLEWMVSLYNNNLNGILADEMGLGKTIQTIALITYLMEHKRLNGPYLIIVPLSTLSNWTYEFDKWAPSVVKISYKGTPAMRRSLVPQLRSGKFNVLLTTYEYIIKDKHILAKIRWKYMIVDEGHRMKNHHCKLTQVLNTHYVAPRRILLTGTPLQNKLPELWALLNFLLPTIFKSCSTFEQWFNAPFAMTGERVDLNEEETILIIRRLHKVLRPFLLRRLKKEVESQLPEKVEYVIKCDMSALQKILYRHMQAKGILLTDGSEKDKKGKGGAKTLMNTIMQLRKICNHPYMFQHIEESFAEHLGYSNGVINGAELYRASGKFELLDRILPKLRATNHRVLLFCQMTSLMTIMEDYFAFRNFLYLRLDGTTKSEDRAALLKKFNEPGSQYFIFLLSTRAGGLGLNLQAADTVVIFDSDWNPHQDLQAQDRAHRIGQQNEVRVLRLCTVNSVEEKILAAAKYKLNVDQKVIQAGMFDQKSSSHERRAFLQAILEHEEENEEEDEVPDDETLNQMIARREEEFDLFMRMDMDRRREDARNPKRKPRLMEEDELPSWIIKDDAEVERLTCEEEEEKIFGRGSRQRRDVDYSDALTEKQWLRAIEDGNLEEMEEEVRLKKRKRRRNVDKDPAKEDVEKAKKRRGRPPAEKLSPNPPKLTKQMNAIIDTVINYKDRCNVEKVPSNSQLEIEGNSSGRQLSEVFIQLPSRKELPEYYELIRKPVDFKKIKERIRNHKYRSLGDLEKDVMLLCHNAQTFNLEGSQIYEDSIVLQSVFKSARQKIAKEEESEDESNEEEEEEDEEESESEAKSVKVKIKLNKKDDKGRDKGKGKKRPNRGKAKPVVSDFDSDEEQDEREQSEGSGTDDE
Method in brief: as §1

Chain of SMARCA4 (P51532 whole entry): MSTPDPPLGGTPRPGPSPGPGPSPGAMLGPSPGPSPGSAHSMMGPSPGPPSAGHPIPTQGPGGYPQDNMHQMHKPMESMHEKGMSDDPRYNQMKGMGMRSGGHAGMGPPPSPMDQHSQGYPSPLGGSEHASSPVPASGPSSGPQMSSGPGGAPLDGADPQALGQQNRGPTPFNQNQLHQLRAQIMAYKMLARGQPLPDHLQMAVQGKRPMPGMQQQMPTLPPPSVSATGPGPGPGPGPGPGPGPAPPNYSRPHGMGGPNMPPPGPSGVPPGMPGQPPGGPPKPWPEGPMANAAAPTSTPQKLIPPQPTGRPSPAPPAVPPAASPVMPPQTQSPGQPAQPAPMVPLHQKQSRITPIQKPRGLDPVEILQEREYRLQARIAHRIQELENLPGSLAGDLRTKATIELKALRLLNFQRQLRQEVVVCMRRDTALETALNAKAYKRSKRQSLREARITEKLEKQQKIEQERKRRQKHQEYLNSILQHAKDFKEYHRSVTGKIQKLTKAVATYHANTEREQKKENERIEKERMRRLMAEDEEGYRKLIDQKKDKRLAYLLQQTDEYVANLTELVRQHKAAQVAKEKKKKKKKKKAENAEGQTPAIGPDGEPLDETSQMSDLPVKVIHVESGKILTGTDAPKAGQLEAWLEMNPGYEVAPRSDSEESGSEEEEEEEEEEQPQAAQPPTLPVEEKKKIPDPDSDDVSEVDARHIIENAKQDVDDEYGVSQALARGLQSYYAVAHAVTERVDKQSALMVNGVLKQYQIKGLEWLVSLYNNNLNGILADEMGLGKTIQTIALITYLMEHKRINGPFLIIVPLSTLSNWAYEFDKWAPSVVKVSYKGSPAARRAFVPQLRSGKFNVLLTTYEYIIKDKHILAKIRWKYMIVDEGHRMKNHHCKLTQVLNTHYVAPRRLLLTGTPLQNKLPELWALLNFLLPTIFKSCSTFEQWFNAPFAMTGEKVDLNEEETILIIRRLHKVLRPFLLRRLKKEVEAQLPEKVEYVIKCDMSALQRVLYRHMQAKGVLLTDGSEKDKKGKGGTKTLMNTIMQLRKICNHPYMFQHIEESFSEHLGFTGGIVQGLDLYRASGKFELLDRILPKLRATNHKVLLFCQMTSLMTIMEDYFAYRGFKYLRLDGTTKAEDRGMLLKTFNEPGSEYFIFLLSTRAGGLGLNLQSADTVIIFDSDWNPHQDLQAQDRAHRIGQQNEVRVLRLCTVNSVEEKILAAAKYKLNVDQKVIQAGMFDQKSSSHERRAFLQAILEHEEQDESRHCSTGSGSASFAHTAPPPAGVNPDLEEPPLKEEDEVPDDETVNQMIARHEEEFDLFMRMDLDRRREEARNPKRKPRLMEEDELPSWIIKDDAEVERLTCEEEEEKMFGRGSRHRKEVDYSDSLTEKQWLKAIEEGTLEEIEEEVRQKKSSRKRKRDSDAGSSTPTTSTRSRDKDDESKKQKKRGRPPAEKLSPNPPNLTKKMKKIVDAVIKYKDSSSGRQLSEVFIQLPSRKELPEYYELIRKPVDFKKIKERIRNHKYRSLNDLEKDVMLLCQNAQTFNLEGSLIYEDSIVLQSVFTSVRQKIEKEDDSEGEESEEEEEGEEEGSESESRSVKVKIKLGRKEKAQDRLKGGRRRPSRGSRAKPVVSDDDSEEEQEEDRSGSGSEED

Structure (SMILES) | DC50 (SMARCA4) [nM] | Dmax (SMARCA4) [%] | DC50 (SMARCA2) [nM] | Dmax (SMARCA2) [%]
Cc1ncsc1-c1ccc([C@H](C)NC(=O)[C@@H]2C[C@@H](O)CN2C(=O)[C@@H](c2cc(CCCN(C)CCN3CCN4c5cc(-c6ccccc6O)nnc5NC[C@H]4C3)no2)C(C)C)cc1 [Example 92, (2S,4R)-4-hydroxy-1-((R)-2-(3-(3-((2-((S)-2-(2-hydroxyphenyl)-5,6,6a,7,9,10-hexahydro-8H-pyrazino[1′,2′:4,5]pyrazino[2,3-c]pyridazin-8-yl)ethyl)(methyl)amino)propyl)isoxazol-5-yl)-3-methylbutanoyl)-N-((S)-1-(4-(4-methylthiazol-5-yl)phenyl)ethyl)pyrrolidine-2-carboxamide] | ≥ 10000 | ≤ 50 | < 100 | > 75
Cc1ncsc1-c1ccc([C@H](C)NC(=O)[C@@H]2C[C@@H](O)CN2C(=O)[C@@H](c2cc(OCCN3CC(O)C(N4CCN5c6cc(-c7ccccc7O)nnc6NC[C@H]5C4)C3)no2)C(C)C)cc1 (stereo partly drawn) [Example 93, (2S,4R)-4-hydroxy-1-((2R)-2-(3-(2-(3-hydroxy-4-((S)-2-(2-hydroxyphenyl)-5,6,6a,7,9,10-hexahydro-8H-pyrazino[1′,2′:4,5]pyrazino[2,3-c]pyridazin-8-yl)pyrrolidin-1-yl)ethoxy)isoxazol-5-yl)-3-methylbutanoyl)-N-((S)-1-(4-(4-methylthiazol-5-yl)phenyl)ethyl)pyrrolidine-2-carboxamide] | < 100 | > 75 | < 100 | > 75
Cc1ncsc1-c1ccc([C@H](C)NC(=O)[C@@H]2C[C@@H](O)CN2C(=O)[C@@H](c2cc(OCCN3CCC(N4CCN5c6cc(-c7ccccc7O)nnc6NC[C@H]5C4)C(O)C3)no2)C(C)C)cc1 (stereo partly drawn) [Example 94, (2S,4R)-4-hydroxy-1-((2R)-2-(3-(2-(3-hydroxy-4-((S)-2-(2-hydroxyphenyl)-5,6,6a,7,9,10-hexahydro-8H-pyrazino[1′,2′:4,5]pyrazino[2,3-c]pyridazin-8-yl)piperidin-1-yl)ethoxy)isoxazol-5-yl)-3-methylbutanoyl)-N-((S)-1-(4-(4-methylthiazol-5-yl)phenyl)ethyl)pyrrolidine-2-carboxamide] | < 100 | > 75 | < 100 | > 75
Cc1ncsc1-c1ccc([C@H](C)NC(=O)[C@@H]2C[C@@H](O)CN2C(=O)[C@@H](c2cc(OCCN3CCN4c5cc(-c6ccccc6O)nnc5NC(C)C4C3)no2)C(C)C)cc1 (stereo partly drawn) [Example 95, (2S,4R)-4-hydroxy-1-((2R)-2-(3-(2-(2-(2-hydroxyphenyl)-6-methyl-5,6,6a,7,9,10-hexahydro-8H-pyrazino[1′,2′:4,5]pyrazino[2,3-c]pyridazin-8-yl)ethoxy)isoxazol-5-yl)-3-methylbutanoyl)-N-((S)-1-(4-(4-methylthiazol-5-yl)phenyl)ethyl)pyrrolidine-2-carboxamide] | < 100 | > 75 | < 100 | > 75
Cc1ncsc1-c1ccc([C@H](C)NC(=O)[C@@H]2C[C@@H](O)CN2C(=O)[C@@H](c2cc(OCCN3CCC(N4CCN5c6cc(-c7ccccc7O)nnc6NC(C)C5C4)CC3)no2)C(C)C)cc1 (stereo partly drawn) [Example 96, (2S,4R)-4-hydroxy-1-((2R)-2-(3-(2-(4-(2-(2-hydroxyphenyl)-6-methyl-5,6,6a,7,9,10-hexahydro-8H-pyrazino[1′,2′:4,5]pyrazino[2,3-c]pyridazin-8-yl)piperidin-1-yl)ethoxy)isoxazol-5-yl)-3-methylbutanoyl)-N-((S)-1-(4-(4-methylthiazol-5-yl)phenyl)ethyl)pyrrolidine-2-carboxamide] | < 100 | > 75 | < 100 | > 75
Cc1ncsc1-c1ccc([C@H](C)NC(=O)[C@@H]2C[C@@H](O)CN2C(=O)[C@@H](c2cc(O[C@@H](C)CN3CCC(N4CCN5c6cc(-c7ccccc7O)nnc6NC(C)C5C4)CC3)no2)C(C)C)cc1 (stereo partly drawn) [Example 97, (2S,4R)-4-hydroxy-1-((2R)-2-(3-(((2S)-1-(4-(2-(2-hydroxyphenyl)-6-methyl-5,6,6a,7,9,10-hexahydro-8H-pyrazino[1′,2′:4,5]pyrazino[2,3-c]pyridazin-8-yl)piperidin-1-yl)propan-2-yl)oxy)isoxazol-5-yl)-3-methylbutanoyl)-N-((S)-1-(4-(4-methylthiazol-5-yl)phenyl)ethyl)pyrrolidine-2-carboxamide] | < 100 | > 75 | < 100 | > 75
Cc1ncsc1-c1ccc([C@H](C)NC(=O)[C@@H]2C[C@@H](O)CN2C(=O)[C@@H](c2cc(OCCN3CCC(C(=O)N4CCN5c6cc(-c7ccccc7O)nnc6NC[C@H]5C4)CC3)no2)C(C)C)cc1 [Example 98, (2S,4R)-4-hydroxy-1-((R)-2-(3-(2-(4-((S)-2-(2-hydroxyphenyl)-6,6a,7,8,9,10-hexahydro-5H-pyrazino[1′,2′:4,5]pyrazino[2,3-c]pyridazine-8-carbonyl)piperidin-1-yl)ethoxy)isoxazol-5-yl)-3-methylbutanoyl)-N-((S)-1-(4-(4-methylthiazol-5-yl)phenyl)ethyl)pyrrolidine-2-carboxamide] | < 100 | > 75 | < 100 | > 75
Cc1ncsc1-c1ccc([C@H](C)NC(=O)[C@@H]2C[C@@H](O)CN2C(=O)[C@@H](c2cc(OCCN3CCC(N(C)C4CCN5c6cc(-c7ccccc7O)nnc6NCC5C4)CC3)no2)C(C)C)cc1 (stereo partly drawn) [Example 99, (2S,4R)-4-hydroxy-1-((2R)-2-(3-(2-(4-((2-(2-hydroxyphenyl)-6,6a,7,8,9,10-hexahydro-5H-pyrido[1′,2′:4,5]pyrazino[2,3-c]pyridazin-8-yl)(methyl)amino)piperidin-1-yl)ethoxy)isoxazol-5-yl)-3-methylbutanoyl)-N-((S)-1-(4-(4-methylthiazol-5-yl)phenyl)ethyl)pyrrolidine-2-carboxamide] | < 100 | > 75 | < 100 | > 75
Cc1ncsc1-c1ccc([C@H](C)NC(=O)[C@@H]2C[C@@H](O)CN2C(=O)[C@@H](c2cc(O[C@@H](C)CN3CCC(CN4CCN5c6cc(-c7ccccc7O)nnc6NC[C@H]5C4)CC3)no2)C(C)C)cc1 [Example 100, (2S,4R)-4-hydroxy-1-((R)-2-(3-(((S)-1-(4-(((S)-2-(2-hydroxyphenyl)-5,6,6a,7,9,10-hexahydro-8H-pyrazino[1′,2′:4,5]pyrazino[2,3-c]pyridazin-8-yl)methyl)piperidin-1-yl)propan-2-yl)oxy)isoxazol-5-yl)-3-methylbutanoyl)-N-((S)-1-(4-(4-methylthiazol-5-yl)phenyl)ethyl)pyrrolidine-2-carboxamide] | < 100 | > 75 | < 100 | > 75
Cc1ncsc1-c1ccc([C@H](C)NC(=O)[C@@H]2C[C@@H](O)CN2C(=O)[C@@H](c2cc(OCCN3CCC(CN4C[C@@H]5CNc6nnc(-c7ccccc7O)cc6N5C[C@@H]4C)CC3)no2)C(C)C)cc1 [Example 101, (2S,4R)-4-hydroxy-1-((R)-2-(3-(2-(4-(((6aS,9S)-2-(2-hydroxyphenyl)-9-methyl-5,6,6a,7,9,10-hexahydro-8H-pyrazino[1′,2′:4,5]pyrazino[2,3-c]pyridazin-8-yl)methyl)piperidin-1-yl)ethoxy)isoxazol-5-yl)-3-methylbutanoyl)-N-((S)-1-(4-(4-methylthiazol-5-yl)phenyl)ethyl)pyrrolidine-2-carboxamide] | < 100 | > 75 | < 100 | > 75
Cc1ncsc1-c1ccc([C@H](C)NC(=O)[C@@H]2C[C@@H](O)CN2C(=O)[C@@H](c2cc(OCCN3CCC(N4C[C@@H]5CNc6nnc(-c7ccccc7O)cc6N5C[C@@H]4C)C3)no2)C(C)C)cc1 (stereo partly drawn) [Example 102, (2S,4R)-4-hydroxy-1-((2R)-2-(3-(2-(3-((6aS,9S)-2-(2-hydroxyphenyl)-9-methyl-5,6,6a,7,9,10-hexahydro-8H-pyrazino[1′,2′:4,5]pyrazino[2,3-c]pyridazin-8-yl)pyrrolidin-1-yl)ethoxy)isoxazol-5-yl)-3-methylbutanoyl)-N-((S)-1-(4-(4-methylthiazol-5-yl)phenyl)ethyl)pyrrolidine-2-carboxamide] | < 100 | > 75 | < 100 | > 75

From patent publication US20240018158A1, “BRM TARGETING COMPOUNDS AND ASSOCIATED METHODS OF USE” (Prelude Therapeutics Incorporated, priority 2020, published 2024)
